Legend:
[1] = Safety (TEAEs) Part 1: tazemetostat coadministered with itraconazole; settings: human, in vivo
Method: Part 1 of the study evaluated the DDI between tazemetostat and itraconazole. On the mornings of Days 1 and 15, patients received a single dose of tazemetostat 400 mg orally. On Days 3‐14, patients received tazemetostat 400 mg twice daily (morning and evening). On Days 18‐20, patients received itraconazole 200 mg orally once daily in the morning. On Days 21‐35, tazemetostat 400 mg twice daily was coadministered in the morning with a single dose of itraconazole 200 mg. On Day 36, patients received a single dose of tazemetostat 400 mg coadministered in the morning with a single dose of itraconazole 200 mg. On Days 37 and 38, patients received a single dose of itraconazole 200 mg (Figure 1A). Throughout Part 1, administration of itraconazole occurred 1 hour after a meal.
(§1) Safety was assessed by monitoring treatment‐emergent adverse events (TEAEs) and vital signs, electrocardiography, and clinical laboratory tests. TEAEs were defined as adverse events that started or worsened in severity on or after the date of the first dose of the study drug through 30 days after the last dose. Treatment‐related TEAEs were summarized by each study drug for both study parts. Adverse events were coded using the Medical Dictionary for Regulatory Activities Version 23.1 and graded per Common Terminology Criteria for Adverse Events Version 5.0.

[2] = Safety (TEAEs) Part 2: tazemetostat coadministered with rifampin; settings: human, in vivo
Method: Part 2 of the study evaluated the DDI between tazemetostat and rifampin. On the mornings of Days 1 and 15, patients received a single dose of tazemetostat 800 mg orally. On Days 3‐14, patients received tazemetostat 800 mg twice daily. On Days 17‐23, patients received tazemetostat 800 mg twice daily, coadministered in the morning with a single dose of rifampin 600 mg orally. On the morning of Day 24, patients received a single dose of tazemetostat 800 mg coadministered with rifampin 600 mg. On the morning of Day 25, patients received rifampin 600 mg (Figure 1B). Throughout Part 2, administration of rifampin occurred 1 hour before a meal.
as §1

SMILES	Treatment-related TEAE Grade 3 or 4, related to the named study drug, patients [1]	Treatment-related TEAEs, related to the named study drug, patients [1]	Treatment-related TESAE, related to the named study drug, patients [1]	Treatment-related TEAE Grade 3 or 4, related to the named study drug, patients [2]	Treatment-related TEAEs, related to the named study drug, patients [2]	Treatment-related TESAE, related to the named study drug, patients [2]
CCC(C)n1ncn(-c2ccc(N3CCN(c4ccc(OCC5COC(Cn6cncn6)(c6ccc(Cl)cc6Cl)O5)cc4)CC3)cc2)c1=O (stereo not drawn) [Itraconazole]	1 (4.8) n (%)	8 (38.1) n (%)	0 n (%)	–	–	–
CO[C@H]1/C=C/O[C@@]2(C)Oc3c(C)c(O)c4c(O)c(c(/C=N/N5CCN(C)CC5)c(O)c4c3C2=O)NC(=O)/C(C)=C\C=C\[C@H](C)[C@H](O)[C@@H](C)[C@@H](O)[C@@H](C)[C@H](OC(C)=O)[C@@H]1C [Rifampin]	–	–	–	1 (4.8) n (%)	8 (38.1) n (%)	0 n (%)

Reference: PMC12209990, “Effect of Cytochrome P450 3A Inhibition and Induction by Itraconazole and Rifampin on Tazemetostat Pharmacokinetics in Patients With Advanced Malignancies” (Clinical Pharmacology in Drug Development, 2025)
